Data: US10443103B2, “Chemotherapy regimen selection” (Innomedicine, LLC, priority 2015, dated 2019)

System: breast cancer
Test: Observed pathologic complete response (pCR) rate after neoadjuvant chemotherapy, GEO data sets
Format: in vivo, human
Conditions: Total of 7 GEO data sets, whole study population
Procedure: Herein, data was reanalyzed from several previous studies in which breast cancer patients were treated with neoadjuvant chemotherapy. Chemotherapies can be given at different stages of breast cancer: before surgery (also called neoadjuvant chemotherapy), after surgery and after metastasis. Neoadjuvant chemotherapy is often used to shrink tumors to make them more operable. There are two main categories of cytotoxic chemotherapy drugs for breast cancer: anthracyclines and taxanes. Many different combinations of the two types of drugs have been used for treating breast cancer, despite the fact that no effective guidelines are available for the selection of a specific regimen for a patient (Dotan, et al., 2010). Herein, data was collected from 1111 breast cancer patients from GEO database (Gene Expression Omnibus (Edgar, et al., 2002, Barrett, et al., 2013)), where clinical information including responses to chemotherapy and gene expression data are available. […] Among the 1111 patients, 21.2% of them have pCR and the rest have RD as their responses. […]
1111 breast cancer tumor samples were collected from 7 data series in GEO database (Gene Expression Omnibus (Takada, et al., 2012, Albain, et al., 2010)) (Table 2). […] R (Liu, et al., 2012) package Affyio (Edgar, et al., 2002) was used to read and normalize the Affymetrix® data. […]

For `CC(=O)O[C@@]12CO[C@@H]1C[C@H](O)[C@@]1(C)C(=O)[C@H](O)C3=C(C)[C@@H](OC(=O)[C@H](O)[C@@H](NC(=O)OC(C)(C)C)c4ccccc4)C[C@@](O)([C@@H](OC(=O)c4ccccc4)[C@H]21)C3(C)C` [docetaxel], the “percentage of patients who have pCR” value was 33.1%.

In the case of `CC(=O)O[C@H]1C(=O)[C@@]2(C)[C@H]([C@H](OC(=O)c3ccccc3)[C@]3(O)C[C@H](OC(=O)[C@H](O)[C@@H](NC(=O)c4ccccc4)c4ccccc4)C(C)=C1C3(C)C)[C@]1(OC(C)=O)CO[C@@H]1C[C@@H]2O` [paclitaxel], the “percentage of patients who have pCR” value is reported as 19.7%.
